Assay [1] has as its target T1, DNA topoisomerase 1 (Homo sapiens) (UniProt P11387).
T1 sequence (whole entry): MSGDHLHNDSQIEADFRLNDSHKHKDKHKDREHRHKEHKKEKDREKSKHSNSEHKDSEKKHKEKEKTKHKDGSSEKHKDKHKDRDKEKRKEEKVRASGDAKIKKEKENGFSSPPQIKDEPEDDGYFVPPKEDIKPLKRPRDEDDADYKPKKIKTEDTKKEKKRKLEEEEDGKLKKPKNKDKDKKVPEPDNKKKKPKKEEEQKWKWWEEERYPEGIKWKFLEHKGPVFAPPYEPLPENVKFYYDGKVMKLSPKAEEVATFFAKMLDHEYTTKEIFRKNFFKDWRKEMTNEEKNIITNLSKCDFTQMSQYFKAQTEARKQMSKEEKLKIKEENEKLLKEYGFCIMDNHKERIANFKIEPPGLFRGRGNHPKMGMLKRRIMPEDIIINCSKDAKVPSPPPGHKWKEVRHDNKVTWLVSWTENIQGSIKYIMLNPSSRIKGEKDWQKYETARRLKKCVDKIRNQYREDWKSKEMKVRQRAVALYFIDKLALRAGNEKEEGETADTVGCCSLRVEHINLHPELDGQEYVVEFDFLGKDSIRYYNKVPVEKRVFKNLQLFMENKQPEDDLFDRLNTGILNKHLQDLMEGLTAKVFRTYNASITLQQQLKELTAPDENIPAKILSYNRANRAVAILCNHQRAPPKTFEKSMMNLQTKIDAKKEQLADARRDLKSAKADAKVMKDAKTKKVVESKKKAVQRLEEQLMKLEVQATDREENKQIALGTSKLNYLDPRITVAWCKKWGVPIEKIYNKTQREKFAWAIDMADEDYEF
The assay is described as follows: Poisoning activity at topoisomerase 1 in human MCF7 cells at 10 uM after 12 hrs by immunoband depletion assay. Format: cell-based.

Assay [2] has as its target DNA topoisomerase 2-alpha (Homo sapiens) (UniProt P11388). The experiment in a line: Poisoning activity at topoisomerase 2 in human MCF7 cells at 10 uM after 12 hrs by immunoband depletion assay. Format: cell-based.
The subject of assay [3] is MCF7. The assay is described as follows: Induction of mitochondrial membrane depolarization in human MCF7 cells after 24 to 48 hrs by JC-1 staining based FACS assay (reference value: 9.9%). Format: functional. A general note: In flow cytometry, cells or beads pass a laser one at a time.
The subject of assay [4] is MCF7. The assay is described as follows: Induction of mitochondrial membrane depolarization in human MCF7 cells assessed as ratio of red to green fluorescence after 24 to 48 hrs by JC-1 staining based FACS assay (reference value: 9.1). The format is functional.

Structures are written as SMILES. Activity calls are given as the source filed them. No cut-off for these calls is given here.

Sequence of DNA topoisomerase 2-alpha (Homo sapiens) (P11388 whole entry): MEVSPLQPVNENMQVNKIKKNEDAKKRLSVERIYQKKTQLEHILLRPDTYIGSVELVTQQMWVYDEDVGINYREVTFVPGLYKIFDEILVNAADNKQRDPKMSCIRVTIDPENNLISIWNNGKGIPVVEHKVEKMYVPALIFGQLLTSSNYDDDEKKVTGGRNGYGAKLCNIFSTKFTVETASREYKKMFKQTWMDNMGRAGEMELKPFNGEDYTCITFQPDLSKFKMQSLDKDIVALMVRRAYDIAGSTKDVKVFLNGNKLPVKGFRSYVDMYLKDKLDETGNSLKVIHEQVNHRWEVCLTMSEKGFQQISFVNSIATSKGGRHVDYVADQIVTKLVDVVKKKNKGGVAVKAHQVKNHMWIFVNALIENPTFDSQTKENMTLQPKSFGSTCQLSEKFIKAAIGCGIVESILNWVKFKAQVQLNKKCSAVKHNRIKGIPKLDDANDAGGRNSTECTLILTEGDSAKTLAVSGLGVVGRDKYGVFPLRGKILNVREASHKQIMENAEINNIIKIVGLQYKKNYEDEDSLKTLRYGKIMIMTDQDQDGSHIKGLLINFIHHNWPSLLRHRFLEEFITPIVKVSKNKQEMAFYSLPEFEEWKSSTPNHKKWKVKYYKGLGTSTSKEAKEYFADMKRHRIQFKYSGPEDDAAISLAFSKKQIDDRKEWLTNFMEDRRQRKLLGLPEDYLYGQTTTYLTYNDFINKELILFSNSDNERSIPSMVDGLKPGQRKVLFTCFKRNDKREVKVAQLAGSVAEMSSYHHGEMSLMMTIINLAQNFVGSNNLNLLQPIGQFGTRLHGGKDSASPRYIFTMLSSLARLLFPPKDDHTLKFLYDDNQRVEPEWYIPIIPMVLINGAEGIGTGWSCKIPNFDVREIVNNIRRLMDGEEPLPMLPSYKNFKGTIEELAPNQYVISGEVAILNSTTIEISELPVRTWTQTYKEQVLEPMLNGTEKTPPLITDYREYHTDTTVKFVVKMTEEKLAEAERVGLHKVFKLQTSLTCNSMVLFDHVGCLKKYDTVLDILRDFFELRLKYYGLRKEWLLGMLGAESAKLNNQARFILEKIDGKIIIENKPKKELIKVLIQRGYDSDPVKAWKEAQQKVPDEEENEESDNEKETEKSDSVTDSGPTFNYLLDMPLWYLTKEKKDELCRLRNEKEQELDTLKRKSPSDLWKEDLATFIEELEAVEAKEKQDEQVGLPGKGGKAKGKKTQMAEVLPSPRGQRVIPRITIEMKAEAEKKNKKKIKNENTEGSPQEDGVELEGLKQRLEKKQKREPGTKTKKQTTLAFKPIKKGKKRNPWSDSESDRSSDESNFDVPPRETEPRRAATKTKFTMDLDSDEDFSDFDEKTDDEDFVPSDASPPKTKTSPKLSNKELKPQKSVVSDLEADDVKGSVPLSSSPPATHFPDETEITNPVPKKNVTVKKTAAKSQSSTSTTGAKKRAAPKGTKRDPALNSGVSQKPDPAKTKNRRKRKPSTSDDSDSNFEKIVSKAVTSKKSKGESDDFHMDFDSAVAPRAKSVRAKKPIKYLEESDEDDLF

Consider `CC[C@@]1(O)C(=O)OCc2c1cc1n(c2=O)Cc2cc3ccccc3nc2-1`, for which the outcome in assay [1] was Active.
Take `COc1cc([C@@H]2c3cc4c(cc3[C@@H](O[C@@H]3O[C@@H]5CO[C@@H](C)O[C@H]5[C@H](O)[C@H]3O)[C@H]3COC(=O)[C@H]23)OCO4)cc(OC)c1O`: in assay [2], the result was Active.
`N#CC(C#N)=NNc1cccc(Cl)c1` [CARBONYL CYANIDE M-CHLOROPHENYLHYDRAZONE] gave an Activity in assay [3] of 98.8%. Further, the Ratio in assay [4] is recorded as 0.014.

Values taken from ChEMBL document CHEMBL3817761, “Chenopodium album metabolites act as dual topoisomerase inhibitors and induce apoptosis in the MCF7 cell line” (Medchemcomm, 2016).
